Measured values as given in US7851650B2, “Compounds for treating inflammation and pain” (Olatec Industries LLC, priority 2009, dated 2010).

Test system: arachidonic acid induced ear swelling
Assay: topical arachidonic acid induced ear swelling model in mice
Format: in vivo
Conditions: male ICR mice, applied 30 min before and 15 min after arachidonic acid, active compound 2 mg/ear x 2, indomethacin 3 mg/ear x 2, relative to lauryl lactate vehicle
Experimental: Male ICR mice weighing 22±2 g were used in the experiment. Arachidonic acid (2 mg in 20 μL acetone) was applied topically onto the anterior and posterior surfaces of the right ear of test animals. […] Ear swelling was then measured using a Dyer model micrometer gauge at 60, 90 and 120 minutes after arachidonic acid induction of ear edema as an index of inflammation.

SMILES | %, ear swelling inhibition after arachidonic acid, 60 min. [%] | %, ear swelling inhibition after arachidonic acid, 90 min. [%] | %, ear swelling inhibition after arachidonic acid, 120 min. [%]
CS(=O)(=O)CCC(NCl)C(=O)O (stereo not drawn) [Active compound/lauryl lactate, 2-N chloro-4-methylsulfonyl-butyric acid] | 33 | 31 | 34
COc1ccc2c(c1)c(CC(=O)O)c(C)n2C(=O)c1ccc(Cl)cc1 [Indomethacin/lauryl lactate, indomethacin] | 71 | 65 | 70
